Source: ChEMBL document CHEMBL1152860, “Synthesis and antiproliferative activity of 3-amino-N-phenyl-1H-indazole-1-carboxamides” (2009)
The source made the active and inactive calls. The rule behind the calls is not given here.

What was measured:
HT-29 = test: Growth inhibition of human HT-29 cells after 48 hrs by SRB assay; format: functional; conditions: HT-29, 48 h
HL-60(TB) = test: Growth inhibition of human HL-60(TB) cells after 48 hrs by SRB assay; format: functional; conditions: HL-60, 48 h
K562 [1] = test: Growth inhibition of human K562 cells after 48 hrs by SRB assay; format: functional; conditions: K562, 48 h
MOLT-4 = test: Growth inhibition of human MOLT4 cells after 48 hrs by SRB assay; format: functional; conditions: MOLT-4, 48 h
RPMI-8226 = test: Growth inhibition of human RPMI8226 cells after 48 hrs by SRB assay; format: functional; conditions: RPMI-8226, 48 h
SR = test: Growth inhibition of human SR cells after 48 hrs by SRB assay; format: functional
A549 = test: Growth inhibition of human A549 cells after 48 hrs by SRB assay; format: functional; conditions: A549, 48 h
EKVX = test: Growth inhibition of human EKVX cells after 48 hrs by SRB assay; format: functional
HOP-62 = test: Growth inhibition of human HOP62 cells after 48 hrs by SRB assay; format: functional; conditions: HOP-62, 48 h
HOP-92 = test: Growth inhibition of human HOP92 cells after 48 hrs by SRB assay; format: functional; conditions: HOP-92, 48 h
NCI-H226 = test: Growth inhibition of human NCI-H226 cells after 48 hrs by SRB assay; format: functional; conditions: NCI-H226, 48 h
NCI-H23 = test: Growth inhibition of human NCI-H23 cells after 48 hrs by SRB assay; format: functional; conditions: NCI-H23, 48 h
NCI-H322M = test: Growth inhibition of human NCI-H322M cells after 48 hrs by SRB assay; format: functional
NCI-H460 = test: Growth inhibition of human NCI-H460 cells after 48 hrs by SRB assay; format: functional; conditions: NCI-H460, 48 h
NCI-H522 = test: Growth inhibition of human NCI-H522 cells after 48 hrs by SRB assay; format: functional; conditions: NCI-H522, 48 h
COLO 205 = test: Growth inhibition of human COLO205 cells after 48 hrs by SRB assay; format: functional; conditions: COLO 205, 48 h
HCC 2998 = test: Growth inhibition of human HCC2998 cells after 48 hrs by SRB assay; format: functional; conditions: HCC 2998, 48 h
HCT-116 = test: Growth inhibition of human HCT116 cells after 48 hrs by SRB assay; format: functional; conditions: HCT-116, 48 h
HCT-15 = test: Growth inhibition of human HCT15 cells after 48 hrs by SRB assay; format: functional; conditions: HCT-15, 48 h
LOX IMVI = test: Growth inhibition of human LOXIMVI cells after 48 hrs by SRB assay; format: functional
Malme-3M = test: Growth inhibition of human MALME-3M cells after 48 hrs by SRB assay; format: functional
M14 = test: Growth inhibition of human M14 cells after 48 hrs by SRB assay; format: functional; conditions: M14, 48 h
SK-MEL-2 = test: Growth inhibition of human SK-MEL-2 cells after 48 hrs by SRB assay; format: functional; conditions: SK-MEL-2, 48 h
SK-MEL-28 = test: Growth inhibition of human SK-MEL-28 cells after 48 hrs by SRB assay; format: functional; conditions: SK-MEL-28, 48 h
SK-MEL-5 = test: Growth inhibition of human SK-MEL-5 cells after 48 hrs by SRB assay; format: functional; conditions: SK-MEL-5, 48 h
UACC-257 = test: Growth inhibition of human UACC257 cells after 48 hrs by SRB assay; format: functional; conditions: UACC-257, 48 h
UACC-62 = test: Growth inhibition of human UACC62 cells after 48 hrs by SRB assay; format: functional; conditions: UACC-62, 48 h
IGROV-1 = test: Growth inhibition of human IGROV1 cells after 48 hrs by SRB assay; format: functional; conditions: IGROV-1, 48 h
OVCAR-3 = test: Growth inhibition of human OVCAR-3 cells after 48 hrs by SRB assay; format: functional; conditions: OVCAR-3, 48 h
OVCAR-4 = test: Growth inhibition of human OVCAR4 cells after 48 hrs by SRB assay; format: functional; conditions: OVCAR-4, 48 h
OVCAR-5 = test: Growth inhibition of human OVCAR5 cells after 48 hrs by SRB assay; format: functional; conditions: OVCAR-5, 48 h
OVCAR-8 = test: Growth inhibition of human OVCAR8 cells after 48 hrs by SRB assay; format: functional; conditions: OVCAR-8, 48 h
SK-OV-3 = test: Growth inhibition of human SKOV3 cells after 48 hrs by SRB assay; format: functional; conditions: SK-OV-3, 48 h
786-0 = test: Growth inhibition of human 786-0 cells after 48 hrs by SRB assay; format: functional; conditions: 786-0, 48 h
A498 = test: Growth inhibition of human A498 cells after 48 hrs by SRB assay; format: functional; conditions: A498, 48 h
ACHN = test: Growth inhibition of human ACHN cells after 48 hrs by SRB assay; format: functional
CAKI-1 = test: Growth inhibition of human Caki1 cells after 48 hrs by SRB assay; format: functional; conditions: CAKI-1, 48 h
RXF 393 = test: Growth inhibition of human […] cells after 48 hrs by SRB assay; format: functional; conditions: RXF 393, 48 h
SN12C = test: Growth inhibition of human SN12C cells after 48 hrs by SRB assay; format: functional
TK-10 = test: Growth inhibition of human TK10 cells after 48 hrs by SRB assay; format: functional; conditions: TK-10, 48 h
UO-31 = test: Growth inhibition of human UO31 cells after 48 hrs by SRB assay; format: functional; conditions: UO-31, 48 h
PC-3 = test: Growth inhibition of human PC3 cells after 48 hrs by SRB assay; format: functional; conditions: PC-3, 48 h
DU-145 = test: Growth inhibition of human DU145 cells after 48 hrs by SRB assay; format: functional; conditions: DU-145, 48 h
MCF7 = test: Growth inhibition of human MCF7 cells after 48 hrs by SRB assay; format: functional; conditions: MCF7, 48 h
NCI/ADR-RES = test: Growth inhibition of human NCI/ADR-RES cells after 48 hrs by SRB assay; format: functional
MDA-MB-231 = test: Growth inhibition of human MDA-MB-231 cells after 48 hrs by SRB assay; format: functional; conditions: MDA-MB-231, 48 h
[2] = Growth inhibition of human Hs 578T cells after 48 hrs by SRB assay; format: functional
MDA-MB-435 = test: Growth inhibition of human MDA-MB-435 cells after 48 hrs by SRB assay; format: functional; conditions: MDA-MB-435, 48 h
BT-549 = test: Growth inhibition of human BT549 cells after 48 hrs by SRB assay; format: functional; conditions: BT-549, 48 h
T47D = test: Growth inhibition of human T47D cells after 48 hrs by SRB assay; format: functional
K562 [3] = test: Cell cycle arrest in human K562 cells assessed as accumulation at S phase at 140 uM after 24 hrs using propidium iodide staining by flow cytometry; format: functional, cell-based
K562 [4] = test: Cell cycle arrest in human K562 cells assessed as accumulation at G2/M phase at 140 uM after 24 hrs using propidium iodide staining by flow cytometry; format: functional, cell-based
KM12 = test: Growth inhibition of human KM12 cells after 48 hrs by SRB assay; format: functional; conditions: KM12, 48 h
SW-620 = test: Growth inhibition of human SW620 cells after 48 hrs by SRB assay; format: functional; conditions: SW-620, 48 h
SF-268 = test: Growth inhibition of human SF268 cells after 48 hrs by SRB assay; format: functional; conditions: SF-268, 48 h
SF-295 = test: Growth inhibition of human SF295 cells after 48 hrs by SRB assay; format: functional; conditions: SF-295, 48 h
SF-539 = test: Growth inhibition of human SF539 cells after 48 hrs by SRB assay; format: functional; conditions: SF-539, 48 h
SNB-19 = test: Growth inhibition of human SNB19 cells after 48 hrs by SRB assay; format: functional; conditions: SNB-19, 48 h
SNB-75 = test: Growth inhibition of human SNB75 cells after 48 hrs by SRB assay; format: functional; conditions: SNB-75, 48 h
U-251 = test: Growth inhibition of human U251 cells after 48 hrs by SRB assay; format: functional; conditions: U-251, 48 h
[5] = read-out: LC50 (the source's name)

`O=C(Nc1cc(C(F)(F)F)ccc1F)Nc1n[nH]c2ccccc12` showed a GI50 (HT-29) greater than 100 µM, a GI50 (HL-60(TB)) greater than 100 µM and a GI50 (K562 [1]) greater than 100 µM. For the same molecule, the GI50 (MOLT-4) was greater than 100 µM, the GI50 (RPMI-8226) was greater than 100 µM and the GI50 (SR) was 55.4 µM. It also gave a GI50 (A549) greater than 100 µM, a GI50 (EKVX) greater than 100 µM and a GI50 (HOP-62) greater than 100 µM. For the same molecule, the GI50 (HOP-92) was greater than 100 µM, the GI50 (NCI-H226) was greater than 100 µM and the GI50 (NCI-H23) was greater than 100 µM. For the same molecule, the GI50 (NCI-H322M) was greater than 100 µM, the GI50 (NCI-H460) was greater than 100 µM and the GI50 (NCI-H522) was greater than 100 µM. The GI50 (COLO 205) was greater than 100 µM, the GI50 (HCC 2998) was greater than 100 µM and the GI50 (HCT-116) was greater than 100 µM. For the same molecule, the GI50 (HCT-15) was greater than 100 µM, the GI50 (LOX IMVI) was greater than 100 µM and the GI50 (Malme-3M) was greater than 100 µM. The GI50 (M14) was greater than 100 µM, the GI50 (SK-MEL-2) was greater than 100 µM and the GI50 (SK-MEL-28) was greater than 100 µM. For the same molecule, the GI50 (SK-MEL-5) was greater than 100 µM, the GI50 (UACC-257) was greater than 100 µM and the GI50 (UACC-62) was greater than 100 µM. The GI50 (IGROV-1) was 0.758 µM, the TGI (IGROV-1) was greater than 100 µM and the CC50 (IGROV-1; [5]) was greater than 100 µM. For the same molecule, the GI50 (OVCAR-3) was greater than 100 µM, the GI50 (OVCAR-4) was greater than 100 µM and the GI50 (OVCAR-5) was greater than 100 µM. It also gave a GI50 (OVCAR-8) greater than 100 µM, a GI50 (SK-OV-3) greater than 100 µM and a GI50 (786-0) greater than 100 µM. For the same molecule, the GI50 (A498) was greater than 100 µM, the GI50 (ACHN) was greater than 100 µM and the GI50 (CAKI-1) was greater than 100 µM. It also gave a GI50 (RXF 393) greater than 100 µM, a GI50 (SN12C) greater than 100 µM and a GI50 (TK-10) greater than 100 µM. The GI50 (UO-31) was greater than 100 µM, the GI50 (PC-3) was greater than 100 µM and the GI50 (DU-145) was greater than 100 µM. It also gave a GI50 (MCF7) of 18.2 µM, a GI50 (NCI/ADR-RES) greater than 100 µM and a GI50 (MDA-MB-231) greater than 100 µM. The GI50 [2] was greater than 100 µM, the GI50 (MDA-MB-435) was greater than 100 µM and the GI50 (BT-549) was greater than 100 µM. For the same molecule, the GI50 (T47D) was 0.215 µM, the TGI (T47D) was greater than 100 µM and the CC50 (T47D; [5]) was greater than 100 µM. For the same molecule, the Activity (K562 [3]) was “Active”, the Activity (K562 [4]) was “Active” and the GI50 (KM12) was greater than 100 µM. It also gave a GI50 (SW-620) greater than 100 µM, a GI50 (SF-268) greater than 100 µM and a GI50 (SF-295) greater than 100 µM. The GI50 (SF-539) was greater than 100 µM, the GI50 (SNB-19) was greater than 100 µM and the GI50 (SNB-75) was 40.1 µM. For the same molecule, the GI50 (U-251) was greater than 100 µM.
